Here are results for 13 compounds from PubChem BioAssay (NCI).

Among the test systems are T-47D breast; EKVX NSCLC; MDA-MB-231 breast; MCF7 breast; UACC-62 melanoma; UO-31 renal; BT-549 breast; HT29 colon.
Holding throughout (assay): growth of human tumour cells (NCI), 48 h

Each structure is given as a SMILES string.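 Following 48 hours of exposure in 96-well plates, responses at five concentrations were used to interpolate endpoints linearly. Abbreviation: GI50, concentration required for 50% inhibition of growth. TGI: concentration producing complete growth inhibition.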 Bounds are passed on as bounds.

Regarding `NC(=NCc1ccccc1)C(N=Nc1ccccc1)C(=O)NCc1ccccc1` (centres undefined), the GI50 was 13.6 µM in the test with T-47D breast; 4.49 µM in the test with EKVX NSCLC; 14.4 µM in the test with MDA-MB-231 breast; 12 µM in the test with MCF7 breast; 16.5 µM in the test with UACC-62 melanoma; 5.87 µM with UO-31 renal. Also, the TGI in the test on T-47D breast worked out at 35.4 µM; in the test on EKVX NSCLC, 23.5 µM; in the test on MDA-MB-231 breast it was 35.2 µM; in the test with MCF7 breast it was 32 µM; in the test with UACC-62 melanoma it was 37.6 µM; in the test with UO-31 renal it was 29.1 µM.
As for `CC(=O)Nc1cc2cc(N)ccc2oc1=O`, the TGI in the test on T-47D breast, in the test on EKVX NSCLC, in the test with MDA-MB-231 breast, in the test with MCF7 breast, in the test with UO-31 renal and in the test on BT-549 breast was greater than 100 µM each time. In addition, the TGI in the test on HT29 colon is greater than 100 µM.
`Oc1ccc(Nc2ccc3ccccc3c2)cc1`: the GI50 is 7.1 µM in the test with T-47D breast; 3.66 µM in the test on EKVX NSCLC; 4.06 µM in the test with MDA-MB-231 breast; 15.8 µM with MCF7 breast; 3.96 µM in the test with UACC-62 melanoma; 1.6 µM with UO-31 renal. For the same compound, the GI50 with HT29 colon is 23 µM. Moreover, the TGI in the test with T-47D breast was 25.7 µM; with EKVX NSCLC it was 20.5 µM; in the test with MDA-MB-231 breast it was 27.8 µM; in the test on MCF7 breast, greater than 100 µM; in the test with UACC-62 melanoma, 18 µM; in the test on UO-31 renal, 9.49 µM. Further, the TGI in the test with HT29 colon was found to be 65.8 µM.
On to `COc1ccc(/C=C2\CN(C(=O)C(Cl)Cl)C/C(=C\c3ccc(OC)cc3)C2=O)cc1`, for which the GI50 with MCF7 breast was 0.296 µM; in the test with UO-31 renal it was 1.33 µM; in the test with BT-549 breast, 2.19 µM. Besides, the TGI came out at 1.51 µM in the test on MCF7 breast, 2.61 µM in the test on UO-31 renal and 8.13 µM in the test with BT-549 breast.
In the case of `Cc1c(-c2ccc(C3CCCCC3)cc2)nc2ccc(F)cc2c1C(=O)O`, the GI50 is 9.65 µM in the test on T-47D breast; 8.9 µM in the test on MDA-MB-231 breast; 0.168 µM with MCF7 breast; 0.205 µM in the test with UACC-62 melanoma; 0.721 µM in the test with UO-31 renal; 9.89 µM in the test on BT-549 breast. Moreover, in the test on HT29 colon, the GI50 was 0.311 µM. Moreover, the TGI in the test with T-47D breast, in the test with MDA-MB-231 breast, in the test with MCF7 breast, in the test with UACC-62 melanoma, in the test on UO-31 renal and in the test with BT-549 breast was greater than 100 µM throughout. In the test with HT29 colon, this compound showed a TGI greater than 100 µM.
With `CCN1CCC(Nc2ccnc3cc(Cl)ccc23)CC1`, the GI50 is 31.3 µM in the test with T-47D breast; 35.2 µM in the test on EKVX NSCLC; 19.7 µM with MDA-MB-231 breast; 28.2 µM in the test with MCF7 breast; 19.2 µM in the test on UACC-62 melanoma; 9.06 µM in the test on UO-31 renal. Moreover, the TGI in the test on T-47D breast is greater than 100 µM; in the test on EKVX NSCLC, greater than 100 µM; in the test on MDA-MB-231 breast it was greater than 100 µM; in the test with MCF7 breast, greater than 100 µM; in the test on UACC-62 melanoma, 39.2 µM; in the test on UO-31 renal, 29 µM.
For the compound `COc1cc2c3cc1Oc1c(OC)c(OC)cc4c1C(=NCC4)Cc1ccc(cc1)Oc1cc(ccc1O)C[C@H]3N(C)CC2`, the TGI in the test on T-47D breast was 40.4 µM; with EKVX NSCLC, greater than 100 µM; with MDA-MB-231 breast it was 27.8 µM; in the test on MCF7 breast it was 70 µM; with UACC-62 melanoma it was 30.3 µM; with BT-549 breast, 24.9 µM. The same compound came in with a TGI with HT29 colon of 23.3 µM.
In the case of `O=C1/C=C/[C@@H](O)[C@@H]2C[C@@H](O)C[C@H]2/C=C/CCC[C@H](CCc2cccc3ccccc23)O1`, the GI50 in the test on EKVX NSCLC was 0.0816 µM; with MDA-MB-231 breast it was 0.0464 µM; in the test with MCF7 breast it was 0.0753 µM; with UACC-62 melanoma it was 0.038 µM; in the test with UO-31 renal it was 0.046 µM; in the test on BT-549 breast, 0.0609 µM. In the test on HT29 colon, the GI50 was 0.0347 µM. Besides, the TGI was 14 µM with EKVX NSCLC; 0.119 µM in the test on MDA-MB-231 breast; 0.377 µM in the test on MCF7 breast; 12.9 µM in the test on UACC-62 melanoma; 12.3 µM in the test with UO-31 renal; 12.1 µM in the test with BT-549 breast. This compound also returned a TGI in the test on HT29 colon of 0.373 µM.
As to `Cn1c(=O)c(Oc2ccc(F)cc2F)cc2cnc(NC(C)(C)CO)nc21`, the GI50 in the test on T-47D breast is 13.7 µM; in the test on MDA-MB-231 breast it was greater than 25 µM; with MCF7 breast it was greater than 25 µM; in the test with UACC-62 melanoma it was greater than 25 µM; with UO-31 renal, 6.65 µM; with BT-549 breast it was greater than 21.4 µM. Moreover, the GI50 in the test on HT29 colon was greater than 25 µM. Moreover, the TGI with T-47D breast was greater than 25 µM; in the test with MDA-MB-231 breast it was greater than 25 µM; in the test with MCF7 breast, greater than 25 µM; in the test with UACC-62 melanoma it was greater than 25 µM; with UO-31 renal, greater than 13.4 µM; in the test with BT-549 breast it was greater than 25 µM. The TGI in the test with HT29 colon was greater than 25 µM.
As to `CC1(C)S[C@@H]2[C@H](N3C(=O)c4ccccc4C3=O)CN2[C@H]1NC(=O)N[C@@H]1N2C[C@@H](N3C(=O)c4ccccc4C3=O)[C@H]2SC1(C)C`, the TGI in the test with T-47D breast, in the test on MDA-MB-231 breast, with MCF7 breast, with UACC-62 melanoma, in the test with UO-31 renal and in the test on HT29 colon was greater than 100 µM throughout.
Regarding `Cc1c(O)c(N=Nc2nc3ccccc3s2)c2ccccc2c1O`, the GI50 with T-47D breast is 39.2 µM; with EKVX NSCLC, 13.3 µM; in the test on MDA-MB-231 breast it was 26.5 µM; in the test with MCF7 breast, greater than 50 µM; with UACC-62 melanoma, 15.3 µM; with UO-31 renal it was 18.8 µM. Also, the GI50 in the test on BT-549 breast is 15.5 µM. Also, the TGI with T-47D breast, with EKVX NSCLC, with MDA-MB-231 breast, in the test with MCF7 breast, in the test on UACC-62 melanoma and in the test on UO-31 renal was greater than 50 µM in each case. The TGI in the test with BT-549 breast is greater than 50 µM.
Take `COC(=O)C1=C(O)[C@H](C(=O)OC)C2(O)C(C(=O)OC)[C@H](c3ccc(OC(=O)C(C)c4ccccc4)cc3)C[C@@H]1[C@@H]2C(=O)OC` (some centres undefined): the GI50 with T-47D breast is 12.3 µM; with EKVX NSCLC it was 32.5 µM; with MDA-MB-231 breast, 19.5 µM; in the test on MCF7 breast, 33.7 µM; with UACC-62 melanoma it was 16.9 µM; in the test with UO-31 renal, 29.5 µM. Further, the GI50 in the test on BT-549 breast was 19.3 µM. Further, the TGI in the test with T-47D breast, in the test with EKVX NSCLC, in the test on MDA-MB-231 breast, in the test with MCF7 breast, with UACC-62 melanoma and in the test on UO-31 renal was greater than 50 µM in each case. The same compound showed a TGI in the test on BT-549 breast greater than 50 µM.
On to `O=C1CSC(=S)N1c1ccco1`, for which the TGI with EKVX NSCLC is greater than 100 µM; with MDA-MB-231 breast, 92.7 µM; in the test with MCF7 breast, greater than 100 µM; in the test with BT-549 breast it was 50.4 µM; with HT29 colon, greater than 100 µM.
